Measurements published in patent US20120225862A1, “HETEROARYL BENZAMIDES, COMPOSITIONS AND METHODS OF USE” (AUCKLAND UNIVSERVICES LIMITED, priority 2009, published 2012).

Columns and labels:
CHK1 = biological target: T1, CHK1 (Homo sapiens, UniProt O14757); test: In vitro kinase activity (Millipore KinaseProfiler): CHK1; format: biochemical; details: no head or unit printed
T1 construct: purchased Millipore (KinaseProfiler service)
Protocol: (§1) All cells were grown in DMEM+10% FCS. ACHN and ACHN shVHL were a kind gift from George V. Thomas (UCLA). HIF overexpressing clones were described previously. Transfection of RNA oligos were performed with DnarmaFECT Reagent 1 (Dharmcon), according to manufacturer's directions. ON-TARGETplus SMART pools against HIF-1β/ARNT were purchased from Dharmacon. Glut1 was detected with anti-GLUT1 antibody from NeoMarkers/LabVision/Fisher. Pyruvate/lactate levels and hexokinase activity were both measured by fluorometric assay (BioVision and Sigma-Aldrich, respectively). ATP levels were measured by bioluminescence assay (ATP Determination Kit from Molecular Probes/Invitrogen). In vitro kinase activities were performed by Millipore KinaseProfiler. Affi-Gel 10 (BioRad) activated affinity media was coupled to analogs to generate immobilized affinity linkers.
(§2) We next wanted to investigate the differential glucose uptake between RCCs with and without VHL treated with compound 47 that subsequently lead to the selective death of VHL-deficient cells. We first examined the message levels of the two main glucose transporters, GLUT1 and GLUT2 by quantitative real-time PCR. GLUT1 is an inducible, high-affinity glucose transporter, while GLUT2 is the glucose transporter responsible for basal glucose uptake. […] Cells deficient in VHL had very low levels of GLUT2 that could barely be detected (FIG. 3J). […]

ASK1 = biological target: T2, ASK1 (Homo sapiens, UniProt Q99683); test: In vitro kinase activity (Millipore KinaseProfiler): ASK1; format: biochemical; details: no head or unit printed
T2 construct: purchased Millipore (KinaseProfiler service)
Protocol: as §1, §2

PKCδ = biological target: T3, PKCδ (Homo sapiens, UniProt Q05655); test: In vitro kinase activity (Millipore KinaseProfiler): PKCδ; format: biochemical; details: no head or unit printed
T3 construct: purchased Millipore (KinaseProfiler service)
T3 sequence (Q05655 whole entry): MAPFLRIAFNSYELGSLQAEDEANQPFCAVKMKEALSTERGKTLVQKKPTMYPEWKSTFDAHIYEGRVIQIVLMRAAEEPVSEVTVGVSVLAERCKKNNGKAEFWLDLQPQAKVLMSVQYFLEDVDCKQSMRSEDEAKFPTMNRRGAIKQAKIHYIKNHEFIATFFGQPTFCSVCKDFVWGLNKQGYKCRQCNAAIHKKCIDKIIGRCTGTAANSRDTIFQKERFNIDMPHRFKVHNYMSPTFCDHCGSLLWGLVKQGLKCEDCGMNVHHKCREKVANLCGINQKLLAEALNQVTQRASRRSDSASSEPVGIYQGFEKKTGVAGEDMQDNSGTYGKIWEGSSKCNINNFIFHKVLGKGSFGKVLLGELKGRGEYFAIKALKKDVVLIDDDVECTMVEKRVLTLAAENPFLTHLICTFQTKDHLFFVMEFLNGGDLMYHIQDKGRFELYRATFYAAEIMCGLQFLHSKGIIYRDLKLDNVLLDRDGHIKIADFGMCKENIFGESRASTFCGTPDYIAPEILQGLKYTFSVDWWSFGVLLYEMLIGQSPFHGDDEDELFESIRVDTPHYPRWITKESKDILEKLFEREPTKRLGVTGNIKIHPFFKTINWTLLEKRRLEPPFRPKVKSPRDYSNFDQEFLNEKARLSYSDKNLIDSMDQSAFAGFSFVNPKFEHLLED
Protocol: as §1, §2

CDK6/cyclinD3 = biological target: T4, CDK6/cyclinD3 (Homo sapiens, UniProt Q00534); test: In vitro kinase activity (Millipore KinaseProfiler): CDK6/cyclinD3; format: biochemical; details: no head or unit printed
T4 construct: purchased Millipore (KinaseProfiler service)
T4 sequence (Q00534 whole entry, species assumed): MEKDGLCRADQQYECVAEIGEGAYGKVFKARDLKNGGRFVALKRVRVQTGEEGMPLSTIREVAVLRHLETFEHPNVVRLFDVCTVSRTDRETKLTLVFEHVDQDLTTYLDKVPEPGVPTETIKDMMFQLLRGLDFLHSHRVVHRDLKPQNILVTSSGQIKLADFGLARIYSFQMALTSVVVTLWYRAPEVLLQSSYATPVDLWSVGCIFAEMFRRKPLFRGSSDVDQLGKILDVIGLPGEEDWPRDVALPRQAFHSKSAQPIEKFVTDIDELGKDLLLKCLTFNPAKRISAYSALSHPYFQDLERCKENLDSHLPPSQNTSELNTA
T4 sequence (P30281 whole entry partner, species assumed): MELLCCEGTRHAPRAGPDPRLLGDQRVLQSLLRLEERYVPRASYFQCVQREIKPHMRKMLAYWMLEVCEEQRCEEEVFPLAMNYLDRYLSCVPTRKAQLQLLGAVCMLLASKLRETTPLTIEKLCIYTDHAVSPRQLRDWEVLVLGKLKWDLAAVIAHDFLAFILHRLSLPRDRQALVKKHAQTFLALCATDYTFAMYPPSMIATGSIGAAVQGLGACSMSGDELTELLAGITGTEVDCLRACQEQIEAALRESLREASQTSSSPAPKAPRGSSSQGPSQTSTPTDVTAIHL
Protocol: as §1, §2

DAPK1 = biological target: T5, DAPK1 (Homo sapiens, UniProt P53355); test: In vitro kinase activity (Millipore KinaseProfiler): DAPK1; format: biochemical; details: no head or unit printed
T5 construct: purchased Millipore (KinaseProfiler service)
T5 sequence (P53355 whole entry, species assumed): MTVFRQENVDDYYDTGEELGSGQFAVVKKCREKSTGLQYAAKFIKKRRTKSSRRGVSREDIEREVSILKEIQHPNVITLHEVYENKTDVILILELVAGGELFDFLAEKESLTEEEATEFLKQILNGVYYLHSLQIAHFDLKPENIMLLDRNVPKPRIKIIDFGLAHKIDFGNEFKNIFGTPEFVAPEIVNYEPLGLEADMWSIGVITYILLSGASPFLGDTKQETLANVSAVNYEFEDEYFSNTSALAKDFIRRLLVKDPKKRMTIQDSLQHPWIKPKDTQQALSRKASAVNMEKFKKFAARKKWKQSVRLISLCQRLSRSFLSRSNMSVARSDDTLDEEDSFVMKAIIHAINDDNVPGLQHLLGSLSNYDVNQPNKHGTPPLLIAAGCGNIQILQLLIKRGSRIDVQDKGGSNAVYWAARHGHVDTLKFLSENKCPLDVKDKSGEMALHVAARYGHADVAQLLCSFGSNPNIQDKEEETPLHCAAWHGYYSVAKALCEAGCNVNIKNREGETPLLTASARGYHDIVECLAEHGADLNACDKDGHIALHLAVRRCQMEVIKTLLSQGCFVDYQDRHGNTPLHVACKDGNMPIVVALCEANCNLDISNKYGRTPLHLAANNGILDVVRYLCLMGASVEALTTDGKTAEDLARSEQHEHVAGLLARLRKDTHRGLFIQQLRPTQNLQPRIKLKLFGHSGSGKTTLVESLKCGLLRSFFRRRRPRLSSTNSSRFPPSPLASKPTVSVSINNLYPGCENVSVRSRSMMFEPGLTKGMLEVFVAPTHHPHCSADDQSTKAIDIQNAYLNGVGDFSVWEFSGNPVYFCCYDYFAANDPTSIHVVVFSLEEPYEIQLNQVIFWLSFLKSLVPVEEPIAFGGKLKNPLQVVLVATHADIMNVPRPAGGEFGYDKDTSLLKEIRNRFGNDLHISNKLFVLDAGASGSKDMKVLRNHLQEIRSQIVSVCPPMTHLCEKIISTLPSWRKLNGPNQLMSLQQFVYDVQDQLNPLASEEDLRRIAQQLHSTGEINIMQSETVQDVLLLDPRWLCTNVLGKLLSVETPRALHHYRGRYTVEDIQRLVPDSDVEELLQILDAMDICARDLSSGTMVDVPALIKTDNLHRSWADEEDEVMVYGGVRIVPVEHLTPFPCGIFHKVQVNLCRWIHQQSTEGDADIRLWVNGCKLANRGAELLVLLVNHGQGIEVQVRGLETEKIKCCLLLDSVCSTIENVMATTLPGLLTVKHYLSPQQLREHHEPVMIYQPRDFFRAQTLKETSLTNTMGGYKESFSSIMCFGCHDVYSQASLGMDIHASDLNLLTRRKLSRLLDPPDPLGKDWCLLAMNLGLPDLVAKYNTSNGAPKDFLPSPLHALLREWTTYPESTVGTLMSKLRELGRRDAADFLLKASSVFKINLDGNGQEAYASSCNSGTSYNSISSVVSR
Protocol: as §1, §2

AMPK = test: In vitro kinase activity (Millipore KinaseProfiler): AMPK; format: biochemical; details: no head or unit printed
Protocol: as §1, §2

RCC4/VHL = test: 3H-2-deoxyglucose uptake, RCC4/VHL; format: cell-based, human; details: 5 μM
Protocol: One hundred thousand cells were plated into 6-well plates. The following day, the cells were treated with vehicle or drug and incubated for the indicated time. Cells were washed twice in phosphate buffered saline and low glucose media was added for 30 minutes. Cells were then incubated with 0.5 microCi of tritiated-2-deoxyglucose and incubated for an hour at 37° C. Cells were washed twice in PBS and then lysed in 0.2 N NaOH and 0.2% SDS. Lysates were transferred to scintillation tubes with scintillation fluid and quantified by scintillation counter.
One hundred thousand cells were plated per well in a six-well plate. The next day, cells were treated with the indicated concentration of drug and incubated for the indicated time. Cells were then washed twice with phosphate-buffered saline, incubated in low-glucose medium for 30 minutes, and ^3H-2-deoxyglucose (0.5 μCi) was added in 1 ml of glucose-free media for an additional hour. Cells were washed twice in PBS and lysed (0.2 N NaOH and 0.2% sodium dodecyl sulfate). Glucose uptake was quantified with a scintillation counter.

Abl = biological target: T6, Abl (Homo sapiens, UniProt P00519); test: In vitro kinase activity (Millipore KinaseProfiler): Abl; format: biochemical; details: no head or unit printed
T6 construct: purchased Millipore (KinaseProfiler service)
T6 sequence (P00519 whole entry, species assumed): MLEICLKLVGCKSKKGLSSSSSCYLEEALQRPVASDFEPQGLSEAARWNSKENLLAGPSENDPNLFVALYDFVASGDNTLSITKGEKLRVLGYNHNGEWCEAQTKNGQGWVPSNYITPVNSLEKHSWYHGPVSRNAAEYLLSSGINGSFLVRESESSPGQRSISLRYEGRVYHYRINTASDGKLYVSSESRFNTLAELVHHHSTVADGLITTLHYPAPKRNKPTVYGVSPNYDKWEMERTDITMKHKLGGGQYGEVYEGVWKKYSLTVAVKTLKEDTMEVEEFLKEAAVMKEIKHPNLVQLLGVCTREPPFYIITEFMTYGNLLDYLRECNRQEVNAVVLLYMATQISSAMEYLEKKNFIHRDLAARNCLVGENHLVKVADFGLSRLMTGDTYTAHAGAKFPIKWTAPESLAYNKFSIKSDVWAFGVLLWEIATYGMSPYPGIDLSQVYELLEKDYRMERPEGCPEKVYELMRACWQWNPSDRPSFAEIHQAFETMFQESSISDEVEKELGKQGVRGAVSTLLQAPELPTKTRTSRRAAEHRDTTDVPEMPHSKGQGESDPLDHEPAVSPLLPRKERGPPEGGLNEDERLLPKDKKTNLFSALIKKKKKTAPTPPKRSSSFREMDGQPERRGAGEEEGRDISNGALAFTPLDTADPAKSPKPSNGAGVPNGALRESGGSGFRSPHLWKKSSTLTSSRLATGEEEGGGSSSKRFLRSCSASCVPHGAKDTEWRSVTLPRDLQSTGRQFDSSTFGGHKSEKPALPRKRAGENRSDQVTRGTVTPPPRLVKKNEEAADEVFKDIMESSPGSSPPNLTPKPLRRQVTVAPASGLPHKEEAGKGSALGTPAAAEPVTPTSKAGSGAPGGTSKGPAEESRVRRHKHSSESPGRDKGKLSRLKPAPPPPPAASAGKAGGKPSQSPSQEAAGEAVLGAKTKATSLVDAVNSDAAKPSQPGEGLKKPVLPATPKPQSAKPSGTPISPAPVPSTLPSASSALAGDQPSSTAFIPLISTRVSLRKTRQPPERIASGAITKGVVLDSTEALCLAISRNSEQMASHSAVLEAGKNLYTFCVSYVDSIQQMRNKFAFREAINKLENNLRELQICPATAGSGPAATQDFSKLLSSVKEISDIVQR
Protocol: as §1, §2

[1] = tested on: RCC4/VHL cell clones overexpressing HIF-2α; test: Sensitivity of RCC4/VHL clones overexpressing HIF; format: cell-based, human; details: two HIF-overexpressing RCC4/VHL clones, FIG. 2G
Protocol: As the hypoxia-inducible factor family of transcription factors are the best-characterized VHL targets, we next examined whether toxicity was HIF-dependent. A non-degradable, constitutively active HIF was overexpressed in RCC4/VHL cells. Two individual HIF-overexpressing clones were tested for their sensitivity to compound 47. […] Furthermore, the sensitivity of RCCs that lack functional VHL to compound 47 is directly linked to the aberrant upregulation of HIF.

Plk3 = biological target: T7, Plk3 (Homo sapiens, UniProt Q9H4B4); test: In vitro kinase activity (Millipore KinaseProfiler): Plk3; format: biochemical; details: no head or unit printed
T7 construct: purchased Millipore (KinaseProfiler service)
T7 sequence (Q9H4B4 whole entry, species assumed): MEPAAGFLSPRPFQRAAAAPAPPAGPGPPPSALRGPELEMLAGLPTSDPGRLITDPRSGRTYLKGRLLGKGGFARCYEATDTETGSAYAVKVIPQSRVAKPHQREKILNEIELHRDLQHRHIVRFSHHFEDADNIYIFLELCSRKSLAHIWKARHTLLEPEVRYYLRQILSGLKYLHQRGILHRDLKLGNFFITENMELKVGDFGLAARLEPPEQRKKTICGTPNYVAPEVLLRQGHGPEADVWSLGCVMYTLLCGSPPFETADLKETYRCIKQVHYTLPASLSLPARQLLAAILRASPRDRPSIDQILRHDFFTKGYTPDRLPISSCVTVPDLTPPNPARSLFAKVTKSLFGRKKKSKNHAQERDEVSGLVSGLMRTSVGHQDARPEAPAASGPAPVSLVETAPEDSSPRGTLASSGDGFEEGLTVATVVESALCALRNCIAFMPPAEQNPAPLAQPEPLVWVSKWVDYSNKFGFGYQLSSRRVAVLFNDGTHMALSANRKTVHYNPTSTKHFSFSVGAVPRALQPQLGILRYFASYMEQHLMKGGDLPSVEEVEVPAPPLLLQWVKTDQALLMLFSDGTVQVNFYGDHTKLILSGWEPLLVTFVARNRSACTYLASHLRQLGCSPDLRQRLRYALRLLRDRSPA
Protocol: as §1, §2

PKA = biological target: T8, PKA (Homo sapiens, UniProt P17612); test: In vitro kinase activity (Millipore KinaseProfiler): PKA; format: biochemical; details: no head or unit printed
T8 construct: purchased Millipore (KinaseProfiler service)
Protocol: as §1, §2

RCC4 and RCC4/VHL cells = test: Oxygen consumption (Oxytherm electrode); format: cell-based, human; details: 5 μM, FIG. 3F
Protocol: Following treatment with vehicle or drug, cells were trypsinized, suspended at 5 million cells per ml in DMEM+10% FCS, and oxygen consumption was measured in 0.5 ml volume using an Oxytherm electrode unit (Hansatech).

T1 sequence (O14757 whole entry, species assumed): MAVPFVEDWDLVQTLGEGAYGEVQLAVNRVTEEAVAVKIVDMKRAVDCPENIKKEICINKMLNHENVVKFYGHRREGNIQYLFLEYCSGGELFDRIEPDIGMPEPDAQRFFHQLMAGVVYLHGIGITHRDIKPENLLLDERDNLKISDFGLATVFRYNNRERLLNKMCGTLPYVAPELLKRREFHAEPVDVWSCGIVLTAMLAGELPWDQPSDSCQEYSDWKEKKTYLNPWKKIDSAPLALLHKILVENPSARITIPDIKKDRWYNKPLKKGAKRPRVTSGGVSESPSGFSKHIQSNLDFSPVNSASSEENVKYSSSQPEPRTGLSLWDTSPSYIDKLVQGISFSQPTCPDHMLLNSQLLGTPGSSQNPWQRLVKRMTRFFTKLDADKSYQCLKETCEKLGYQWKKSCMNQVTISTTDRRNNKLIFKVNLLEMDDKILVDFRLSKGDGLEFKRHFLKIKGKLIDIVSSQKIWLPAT

CC(C)(C)c1ccc(S(=O)(=O)NCc2ccc(C(=O)Nc3cccnc3)cc2)cc1 [Example 38, 4-((4-tert-Butylphenylsulfonamido)methyl)-N-(pyridin-3-yl)benzamide]
CHK1 kinase activity (CHK1): 114 | ASK1 kinase activity (ASK1): 129% | PKCδ kinase activity (PKCδ): 116 | CDK6/cyclinD3 kinase activity (CDK6/cyclinD3): 105 | DAPK1 kinase activity (DAPK1): 92% | AMPK kinase activity (AMPK): 92% | glucose uptake in RCC4/VHL cells (RCC4/VHL): unaffected | Abl kinase activity (Abl): 108 | effect of ectopic HIF expression in wild-type VHL cells on sensitivity [1]: sensitized these cells | Plk3 kinase activity (Plk3): 104 | PKA kinase activity (PKA): 96 | oxygen consumption, treated vs untreated cells (RCC4 and RCC4/VHL cells): no difference in oxygen consumption
